# Active and inactive are the calls of the source.
# Experiments:
# [1] = viability loss in THP-1 monocytes – THP-1 cells, cytotoxicity control for Vif-APOBEC3G degradation inhibitor project, dose response (AID 1117359); type: functional; conditions: THP-1
# Cytochrome P450 2C9 = Cytochrome P450 2C9 (Homo sapiens, UniProt P11712)
# [2] = viability loss in human Jurkat cells – cell-based, luminescence, cytotoxicity control for P. falciparum gametocyte viability project, dose response (AID 1117277); type: functional;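 further: potency reflects loss of cellular ATP meaning fewer viable cells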
# [3] = viability inhibitors of stage V gametocytes – luminescence, dose response (AID 1117278); type: functional, cell-based;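 further: gametocytes exposed to compound for 24 hours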
# [4] = target: DNA dC->dU-editing enzyme APOBEC-3A (Homo sapiens, UniProt P31941); test: Dose Response confirmation of small molecule APOBEC3A DNA Deaminase Inhibitors via a fluorescence-based single-stranded DNA deaminase assay. [Related pubchem assays (depositor defined):AID493011, AID493024]; type: functional
# DNA dC->dU-editing enzyme APOBEC-3A, sequence (P31941 whole entry): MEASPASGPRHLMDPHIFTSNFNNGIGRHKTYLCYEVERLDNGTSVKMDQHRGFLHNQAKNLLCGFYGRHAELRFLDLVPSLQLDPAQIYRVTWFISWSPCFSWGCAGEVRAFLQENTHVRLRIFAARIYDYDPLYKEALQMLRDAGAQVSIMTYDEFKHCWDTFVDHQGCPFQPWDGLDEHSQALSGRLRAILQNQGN
# [5] = target: DNA dC->dU-editing enzyme APOBEC-3G (Homo sapiens, UniProt Q9HC16); type: functional;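 further: Dose-response counterscreen measuring inhibition of APOBEC3G DNA deaminase activity, run while confirming APOBEC3A inhibitors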
# DNA dC->dU-editing enzyme APOBEC-3G, sequence (Q9HC16 whole entry): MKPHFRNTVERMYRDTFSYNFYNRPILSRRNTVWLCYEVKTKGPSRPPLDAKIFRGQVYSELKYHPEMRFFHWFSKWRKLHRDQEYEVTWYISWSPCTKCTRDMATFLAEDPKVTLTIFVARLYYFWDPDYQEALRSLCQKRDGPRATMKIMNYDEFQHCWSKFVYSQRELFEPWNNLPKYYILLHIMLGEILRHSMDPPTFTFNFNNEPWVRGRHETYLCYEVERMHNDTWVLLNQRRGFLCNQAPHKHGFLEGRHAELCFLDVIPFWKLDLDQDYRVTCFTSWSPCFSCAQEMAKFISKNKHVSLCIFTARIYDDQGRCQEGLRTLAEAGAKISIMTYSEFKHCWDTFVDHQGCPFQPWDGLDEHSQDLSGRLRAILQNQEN
# Protein RecA = target: T1, Protein RecA (Mycobacterium tuberculosis, UniProt P9WHJ3); test: Fluorescence Cell-Free Homogeneous Dose Retest to Identify Inhibitors of RecA-Intein Splicing Activity. [Related pubchem assays (depositor defined):AID2097, AID2223, AID489010, AID492950]; type: functional
# T1 sequence (P9WHJ3 whole entry): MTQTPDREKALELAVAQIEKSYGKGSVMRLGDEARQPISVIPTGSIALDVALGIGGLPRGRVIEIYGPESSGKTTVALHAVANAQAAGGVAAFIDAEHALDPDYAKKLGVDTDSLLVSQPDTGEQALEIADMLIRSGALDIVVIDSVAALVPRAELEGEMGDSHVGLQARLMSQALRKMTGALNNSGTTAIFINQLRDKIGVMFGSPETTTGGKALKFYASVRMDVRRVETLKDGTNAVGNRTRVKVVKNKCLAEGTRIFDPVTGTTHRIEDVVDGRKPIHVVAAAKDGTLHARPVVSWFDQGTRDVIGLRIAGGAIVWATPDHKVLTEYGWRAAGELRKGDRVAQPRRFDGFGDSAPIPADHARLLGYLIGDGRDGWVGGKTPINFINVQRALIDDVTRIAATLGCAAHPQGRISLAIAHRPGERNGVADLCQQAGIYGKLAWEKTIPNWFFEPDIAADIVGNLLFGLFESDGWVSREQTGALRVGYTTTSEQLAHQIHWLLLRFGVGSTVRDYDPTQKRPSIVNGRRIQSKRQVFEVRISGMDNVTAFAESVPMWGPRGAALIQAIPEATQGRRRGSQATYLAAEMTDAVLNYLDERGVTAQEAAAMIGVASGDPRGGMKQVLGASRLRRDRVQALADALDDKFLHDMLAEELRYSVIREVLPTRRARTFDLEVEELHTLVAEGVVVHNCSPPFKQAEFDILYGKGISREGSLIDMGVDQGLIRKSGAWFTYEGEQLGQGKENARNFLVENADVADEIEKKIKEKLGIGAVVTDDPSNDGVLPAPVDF
# [6] = target: T2, Mannose-6-phosphate isomerase (Homo sapiens, UniProt P34949); test: MPI inhibition at elevated mannose 6-phosphate – biochemical, fluorescence intensity, high mannose 6-phosphate, primary screen (AID 1220)
# T2 sequence (P34949 whole entry): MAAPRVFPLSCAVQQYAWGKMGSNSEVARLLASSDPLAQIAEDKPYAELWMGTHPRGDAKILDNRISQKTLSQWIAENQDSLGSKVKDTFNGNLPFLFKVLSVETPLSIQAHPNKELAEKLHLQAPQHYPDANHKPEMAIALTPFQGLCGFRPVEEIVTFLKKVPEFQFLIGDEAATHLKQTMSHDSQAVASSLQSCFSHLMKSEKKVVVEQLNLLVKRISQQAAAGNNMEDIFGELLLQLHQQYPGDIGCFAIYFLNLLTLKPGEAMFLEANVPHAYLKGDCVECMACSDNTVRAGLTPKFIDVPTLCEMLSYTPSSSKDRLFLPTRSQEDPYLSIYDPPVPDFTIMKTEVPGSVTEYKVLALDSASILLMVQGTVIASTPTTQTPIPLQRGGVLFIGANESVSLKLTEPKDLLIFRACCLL
# [7] = target: T3, Apoptotic protease-activating factor 1 (Homo sapiens, UniProt O14727); type: functional
# T3 sequence (O14727 whole entry): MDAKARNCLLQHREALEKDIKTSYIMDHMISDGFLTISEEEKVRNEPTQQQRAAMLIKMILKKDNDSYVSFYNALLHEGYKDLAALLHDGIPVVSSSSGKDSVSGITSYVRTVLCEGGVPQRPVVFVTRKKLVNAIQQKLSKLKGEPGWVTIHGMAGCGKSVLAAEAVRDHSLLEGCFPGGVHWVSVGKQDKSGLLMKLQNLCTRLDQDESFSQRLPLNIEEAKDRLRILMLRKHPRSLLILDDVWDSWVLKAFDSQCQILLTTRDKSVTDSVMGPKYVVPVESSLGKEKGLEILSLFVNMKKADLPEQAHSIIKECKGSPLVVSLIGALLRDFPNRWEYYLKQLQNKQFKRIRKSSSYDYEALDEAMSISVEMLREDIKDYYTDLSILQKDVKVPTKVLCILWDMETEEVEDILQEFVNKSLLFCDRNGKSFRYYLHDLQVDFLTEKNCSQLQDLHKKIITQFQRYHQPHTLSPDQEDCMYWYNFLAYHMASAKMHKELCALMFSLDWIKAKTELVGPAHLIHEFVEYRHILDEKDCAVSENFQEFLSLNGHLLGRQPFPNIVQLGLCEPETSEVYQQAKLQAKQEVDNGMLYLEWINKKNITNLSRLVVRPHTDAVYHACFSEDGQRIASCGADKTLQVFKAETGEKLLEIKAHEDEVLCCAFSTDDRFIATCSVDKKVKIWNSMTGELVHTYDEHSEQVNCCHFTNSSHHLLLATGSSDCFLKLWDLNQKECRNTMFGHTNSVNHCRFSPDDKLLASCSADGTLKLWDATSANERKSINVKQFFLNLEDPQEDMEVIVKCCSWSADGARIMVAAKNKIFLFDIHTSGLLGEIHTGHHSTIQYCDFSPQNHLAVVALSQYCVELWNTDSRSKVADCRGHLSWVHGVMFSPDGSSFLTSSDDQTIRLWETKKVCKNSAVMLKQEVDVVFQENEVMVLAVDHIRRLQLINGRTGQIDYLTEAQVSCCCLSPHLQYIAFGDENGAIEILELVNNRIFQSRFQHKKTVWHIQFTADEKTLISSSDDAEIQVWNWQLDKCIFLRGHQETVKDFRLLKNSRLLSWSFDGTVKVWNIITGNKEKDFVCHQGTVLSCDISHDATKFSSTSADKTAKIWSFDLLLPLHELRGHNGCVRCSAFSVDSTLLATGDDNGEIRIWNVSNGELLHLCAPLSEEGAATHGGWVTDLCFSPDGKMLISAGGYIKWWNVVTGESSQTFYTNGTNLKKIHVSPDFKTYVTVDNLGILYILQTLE
# [8] = target: Glucose-6-phosphate 1-dehydrogenase (Homo sapiens, UniProt P11413); test: inhibition of Homo sapiens G6PD, dose series – biochemical, fluorescence, selectivity assay for P. falciparum G6PD inhibitor project, dose response (AID 504792); type: functional
# Glucose-6-phosphate 1-dehydrogenase, sequence (P11413 whole entry): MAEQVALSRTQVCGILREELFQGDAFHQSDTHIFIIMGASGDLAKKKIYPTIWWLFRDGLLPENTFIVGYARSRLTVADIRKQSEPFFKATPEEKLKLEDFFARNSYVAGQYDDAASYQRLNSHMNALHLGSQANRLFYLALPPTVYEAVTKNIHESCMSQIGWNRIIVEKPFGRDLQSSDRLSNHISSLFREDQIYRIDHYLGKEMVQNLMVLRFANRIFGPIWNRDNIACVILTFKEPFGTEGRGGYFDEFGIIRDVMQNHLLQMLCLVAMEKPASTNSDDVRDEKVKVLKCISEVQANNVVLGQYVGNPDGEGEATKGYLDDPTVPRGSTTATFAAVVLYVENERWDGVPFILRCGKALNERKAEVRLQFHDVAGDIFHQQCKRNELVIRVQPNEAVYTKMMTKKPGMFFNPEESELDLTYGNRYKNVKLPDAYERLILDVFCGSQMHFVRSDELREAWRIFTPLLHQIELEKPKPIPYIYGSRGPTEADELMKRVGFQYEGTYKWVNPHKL
# HT-1080 = test: HT1080 cell viability loss – fluorescence readout (AID 620); type: functional, cell-based; conditions: Homo sapiens
# [9] = target: Luciferin 4-monooxygenase (Photinus pyralis, UniProt P08659); test: Counter Screen for Luciferase-based Assay Positives. [Related pubchem assays: 620, 618, 411 ]
# Luciferin 4-monooxygenase, sequence (P08659 whole entry): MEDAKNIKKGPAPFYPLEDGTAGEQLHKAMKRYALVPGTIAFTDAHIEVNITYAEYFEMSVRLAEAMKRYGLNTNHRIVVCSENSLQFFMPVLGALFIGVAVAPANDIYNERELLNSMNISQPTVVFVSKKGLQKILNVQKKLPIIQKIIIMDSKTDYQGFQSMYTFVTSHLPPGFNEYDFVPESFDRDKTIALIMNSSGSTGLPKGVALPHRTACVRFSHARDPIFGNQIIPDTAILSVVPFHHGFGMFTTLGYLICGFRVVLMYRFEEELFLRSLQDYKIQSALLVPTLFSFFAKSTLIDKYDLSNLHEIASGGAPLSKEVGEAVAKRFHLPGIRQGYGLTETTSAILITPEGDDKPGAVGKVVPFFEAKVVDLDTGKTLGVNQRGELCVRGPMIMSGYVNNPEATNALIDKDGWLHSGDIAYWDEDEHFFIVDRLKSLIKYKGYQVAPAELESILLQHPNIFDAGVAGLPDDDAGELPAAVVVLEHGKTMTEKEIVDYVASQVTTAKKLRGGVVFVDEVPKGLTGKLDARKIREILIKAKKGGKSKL
# [10] = HIV-1 Vif–A3G interaction blockers – biochemical, TR-FRET, GST-Vif 1-94, biotin-A3G peptide, dose response retest, primary screen (AID 1117319); type: functional;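 further: TR-FRET signal of purified GST-Vif binding a biotinylated A3G peptide; inhibitors lower the FRET signal by blocking Vif and A3G binding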
# Streptococcus = test: GAS UMAA2166 growth inhibition – luminescence, BacTiterGlo, counter-screen for streptokinase expression inhibitor project, dose response (AID 1915); type: functional, organism-based;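 further: potency for reduction of bacterial viability or growth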
# Streptokinase A = target: T4, Streptokinase A (Streptococcus pyogenes serotype M1, UniProt P10520); test: viability-normalized secreted streptokinase activity reduction – plasminogen activation absorbance, OD405, dose response (AID 1914); type: functional, Streptococcus pyogenes M1 GAS;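 further: secreted streptokinase activity via plasminogen activation per viability signal from cell pellet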
# T4 sequence (P10520 whole entry): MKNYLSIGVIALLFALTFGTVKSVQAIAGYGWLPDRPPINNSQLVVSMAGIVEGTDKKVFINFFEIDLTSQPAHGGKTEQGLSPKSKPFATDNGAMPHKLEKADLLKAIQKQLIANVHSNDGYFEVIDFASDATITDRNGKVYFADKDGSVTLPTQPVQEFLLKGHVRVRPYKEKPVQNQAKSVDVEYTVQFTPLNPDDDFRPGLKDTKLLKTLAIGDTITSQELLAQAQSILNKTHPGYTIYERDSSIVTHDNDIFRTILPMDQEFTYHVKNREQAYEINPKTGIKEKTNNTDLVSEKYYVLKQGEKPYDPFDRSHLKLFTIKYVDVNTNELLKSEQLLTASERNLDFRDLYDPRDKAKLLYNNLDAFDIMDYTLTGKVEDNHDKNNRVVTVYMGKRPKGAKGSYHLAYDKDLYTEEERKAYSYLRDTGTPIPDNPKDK
# [11] = system: Streptococcus sp. 'group A'; test: Streptococcus pyogenes SK(-)GAS viability under kanamycin – luminescence, BacTiterGlo, confirmation, counter-screen for streptokinase expression inhibitor project, dose response (AID 1900); type: functional, organism-based
# Estrogen receptor beta = Estrogen receptor beta (Homo sapiens, UniProt Q92731);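 further: recombinant ER-beta bound to coactivator SRC1 peptide in presence of estradiol agonist; inhibitors block coactivator peptide binding and lower the FRET signal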
# Estrogen receptor beta, sequence (Q92731 whole entry): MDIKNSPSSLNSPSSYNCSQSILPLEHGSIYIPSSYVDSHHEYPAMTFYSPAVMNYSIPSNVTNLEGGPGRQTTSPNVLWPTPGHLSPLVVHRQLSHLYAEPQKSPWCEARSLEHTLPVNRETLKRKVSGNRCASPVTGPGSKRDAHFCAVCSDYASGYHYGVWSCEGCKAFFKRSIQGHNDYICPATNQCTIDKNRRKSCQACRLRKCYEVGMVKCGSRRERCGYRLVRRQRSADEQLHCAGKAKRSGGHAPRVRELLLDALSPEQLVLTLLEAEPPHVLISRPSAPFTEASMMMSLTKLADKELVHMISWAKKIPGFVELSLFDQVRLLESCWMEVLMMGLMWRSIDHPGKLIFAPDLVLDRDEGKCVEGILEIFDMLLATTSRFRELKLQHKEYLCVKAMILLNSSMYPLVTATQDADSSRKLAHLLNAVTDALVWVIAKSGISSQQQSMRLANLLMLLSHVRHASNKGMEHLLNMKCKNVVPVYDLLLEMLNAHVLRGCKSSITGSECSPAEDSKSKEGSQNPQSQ
# [12] = HEK-293T cell viability reduction – luminescence, B-cell screen hits, cytotoxicity control for BCR NF-kB inhibitor project, dose response (AID 489021); type: functional, cell-based;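 further: HEK-293T cells carrying an NF-kB luciferase reporter; cells exposed to compound for about 14 hours before viability readout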
# [13] = A Cell Based Secondary Assay To Explore Cytotoxicity of Compounds that Sensitize Mycobacterium Tuberculosis to Beta-Lactam Antibiotics.; type: functional
# [14] = HEK-293T viability loss after treatment – luminescence, T-cell screen hits, cytotoxicity control for TCR NF-kB inhibitor project, dose response (AID 489026); type: functional, cell-based;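 further: cells exposed to compound about 14 hours before the viability readout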
# [15] = target: Eukaryotic translation initiation factor 4E (Mus musculus, UniProt P63073); test: blockers of eIF4G binding by eIF4E – biochemical, TR-FRET, dose response (AID 855); type: functional;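 further: potency for disrupting eIF4E binding to eIF4GI seen as loss of FRET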
# Eukaryotic translation initiation factor 4E, sequence (P63073 whole entry): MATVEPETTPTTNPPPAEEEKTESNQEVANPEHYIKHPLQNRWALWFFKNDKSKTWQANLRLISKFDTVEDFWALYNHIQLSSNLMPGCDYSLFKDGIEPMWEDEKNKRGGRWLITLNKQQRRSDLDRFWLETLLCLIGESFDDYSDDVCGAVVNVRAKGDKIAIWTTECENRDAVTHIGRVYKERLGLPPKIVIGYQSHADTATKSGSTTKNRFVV
# [16] = target: T5, Rac GTPase-activating protein 1 (Homo sapiens, UniProt Q9H0H5); test: blockers of MgcRacGAP-driven Rac1 GTP hydrolysis – biochemical, ADP Hunter fluorescence, primary and confirmatory, confirmation (AID 624330); type: functional
# T5 sequence (Q9H0H5 whole entry): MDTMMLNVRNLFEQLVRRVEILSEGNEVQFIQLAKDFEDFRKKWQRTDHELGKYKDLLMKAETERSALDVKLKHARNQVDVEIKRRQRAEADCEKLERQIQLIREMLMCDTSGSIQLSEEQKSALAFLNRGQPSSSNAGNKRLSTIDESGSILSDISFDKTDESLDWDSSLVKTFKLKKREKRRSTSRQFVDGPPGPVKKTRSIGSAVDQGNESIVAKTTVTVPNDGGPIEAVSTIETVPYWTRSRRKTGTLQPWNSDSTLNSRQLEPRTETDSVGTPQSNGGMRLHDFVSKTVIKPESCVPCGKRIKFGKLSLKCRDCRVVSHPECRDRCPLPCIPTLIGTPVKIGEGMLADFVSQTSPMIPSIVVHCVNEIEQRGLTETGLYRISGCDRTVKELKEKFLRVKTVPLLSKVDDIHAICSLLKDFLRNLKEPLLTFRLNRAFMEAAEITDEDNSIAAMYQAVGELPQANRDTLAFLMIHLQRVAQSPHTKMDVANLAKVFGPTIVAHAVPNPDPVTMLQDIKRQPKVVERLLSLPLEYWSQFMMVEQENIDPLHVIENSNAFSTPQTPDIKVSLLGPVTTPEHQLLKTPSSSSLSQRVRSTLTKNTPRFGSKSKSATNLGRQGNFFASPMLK
# Cytochrome P450 2C9, sequence (P11712 whole entry): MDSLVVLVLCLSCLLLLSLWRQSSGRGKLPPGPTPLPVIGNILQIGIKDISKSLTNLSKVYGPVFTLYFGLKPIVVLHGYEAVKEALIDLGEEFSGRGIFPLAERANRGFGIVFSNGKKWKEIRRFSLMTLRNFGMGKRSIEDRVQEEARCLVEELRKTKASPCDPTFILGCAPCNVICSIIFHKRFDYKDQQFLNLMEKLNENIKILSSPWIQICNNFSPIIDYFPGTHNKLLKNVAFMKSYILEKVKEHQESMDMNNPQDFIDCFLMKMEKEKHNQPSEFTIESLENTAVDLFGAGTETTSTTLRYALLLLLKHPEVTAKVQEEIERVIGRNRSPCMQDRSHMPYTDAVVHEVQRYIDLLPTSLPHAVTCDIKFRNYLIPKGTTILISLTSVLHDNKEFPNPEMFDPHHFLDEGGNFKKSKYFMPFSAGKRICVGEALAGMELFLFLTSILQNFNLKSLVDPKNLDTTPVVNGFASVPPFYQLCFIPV
smiles,measurement,setting,value
CCOC(=O)c1nc(O)c2c(C)c(C)sc2n1,CC50,[1],> 40 µM (active)
same,AC50,Cytochrome P450 2C9,20 µM (inconclusive)
CCC(C)Sc1nc2c(c(=O)[nH]c(=O)n2C)n1CC(O)COc1ccccc1C (stereo unspecified),IC50,[2],> 83.3 µM (inactive)
same,IC50,[3],> 109 µM (inactive)
CC(=O)OCCCn1c(C)[n+](C)c2cc(Cl)c(Cl)cc21,IC50,[4],2.27 µM (active)
same,IC50,[5],2.41 µM (active)
CCCCCn1c(N)c(C(=O)NCc2cccs2)c2nc3ccccc3nc21,EC50,Protein RecA,1.24 µM (active)
same,IC50,[6],> 50 µM (not active)
same,IC50,[7],53.7 µM (active)
CC1=CC(C)(C)[N+](C)(C)c2ccc(C)cc21,IC50,[4],2.06 µM (active)
same,IC50,[5],3.44 µM (active)
CCN(CC)CCCN1C(=O)CSC1c1ccc2c(c1)OCO2 (stereo unspecified),IC50,[2],> 83.3 µM (inactive)
same,IC50,[3],> 109 µM (inactive)
CCC(c1ccc(O)c(O)c1)C(CC)c1ccc(O)c(O)c1 (stereo unspecified),CC50,[1],11.7 µM (active)
same,IC50,[8],> 80 µM (inactive)
Cc1c(C(=O)NCC2CCCO2)oc2ccc3c(c12)C(=O)CC(C)(C)O3 (stereo unspecified),EC50,HT-1080,> 50 µM (not active)
same,EC50,[9],0.54 µM (active)
CCC(Sc1nc2cc(OC)c(OC)cc2c(=O)n1Cc1ccco1)C(=O)NCCOC (stereo unspecified),IC50,[10],> 100 µM (active)
COC(=O)c1c[nH]nc1N=C(S)Nc1ccc(C)cc1Cl,EC50,Streptococcus,> 150 µM (not active)
same,IC50,[10],> 100 µM (active)
same,EC50,Streptokinase A,56.8 µM (active)
same,EC50,[11],51.6 µM (active)
CC(=O)OC(COC1C[C@@H]2CC[C@@]1(C)C2(C)C)C[N+]1(C)CCCCC1 (stereo partly specified),IC50,[4],1.91 µM (active)
same,IC50,[5],3.55 µM (active)
CN(CC(O)COc1ccc(S(=O)(=O)N2CCOCC2)cc1)C1CCCCC1 (stereo unspecified),IC50,Estrogen receptor beta,> 50 µM (not active)
COc1ccc(CC(=O)Nc2ccc(C(N)=O)cc2)cc1,IC50,[2],> 83.3 µM (inactive)
same,IC50,[3],> 109 µM (inactive)
O=C(Cn1cnc2c(nnn2Cc2ccc(Cl)cc2)c1=O)NCc1ccco1,IC50,[10],> 100 µM (active)
CC(=O)c1sc(NC(=O)C2CCN(C(=O)c3ccccc3C)CC2)nc1-c1ccccc1,CC50,[1],> 40 µM (active)
COCCCn1c(=O)/c(=C\c2cccc(OC)c2OC)s/c1=C(/C#N)C(=O)Nc1ccc(C(=O)O)cc1,IC50,[12],> 80 µM (inactive)
same,CC50,[13],> 40 µM (active)
Oc1cc(-c2ccccc2)nc2ccccc12,IC50,[14],> 80 µM (inactive)
same,IC50,[15],> 64 µM (inactive)
Sc1nnc(-c2ccco2)n1/N=C/c1ccc(Cl)cc1,IC50,[15],> 64 µM (inactive)
same,IC50,[16],58.3 µM (active)
Cc1ccc2c(c1)N=C(c1ccc(Cl)cc1)CO2,IC50,[10],> 100 µM (active)

# — ChEMBL document CHEMBL1201862, “PubChem BioAssay data set” (2004)
